One data set concerns the target IRAK4 (Homo sapiens (Human), UniProt Q9NWZ3). In words: IRAK4 Inhibition Assay. The conditions noted are these: ATP 500 μM; IRAK4 0.6 nM. It counts as biochemical. The method in brief:
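Mobility-shift kinase assay: 0.6 nM IRAK4, 500 μM ATP, 1.5 μM fluorescent peptide, 60 min, room temperature. Percent inhibition was normalised between enzyme-free and DMSO-only wells.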

Data set [1] in a line: Caco-2 Permeability Assay. It counts as in vitro ADME. The conditions noted are these: human, Caco-2, test compound 3 μM. Put shortly:
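Bidirectional permeability measured over 2 h at 37° C, compound dosed at 3 μM in the donor compartment (apical for absorptive, basolateral for secretive) with plain buffer as receiver.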
(In general: Passage across Caco-2 layers is used to estimate intestinal permeability.)

Data set [2] has as its system Human whole blood stimulated with a TLR2 agonist (lipoteichoic acid), IL-6 levels. Kind of data set: IRAK4 Whole Blood Assay. The format is cell-based. The conditions noted are these: Homo sapiens, lipoteichoic acid 10 μg/mL. The method in brief:
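IL-6 was quantified by cytometric bead assay in supernatants of human blood (ACD-A) stimulated for 5 h with lipoteichoic acid at 10 μg/mL final. Compound exposure preceded stimulation for 60 min at 37 °C, 5% CO2.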

For 22 compounds, IC50, Papp and EC50 results are on record in patent US10294229B2, “Heteroaryl substituted aminopyridine compounds” (BRISTOL-MYERS SQUIBB COMPANY, priority 2015, dated 2019).

Counter-ions that a name gives are not always drawn.

Sequence of IRAK4 (Q9NWZ3 whole entry, species assumed): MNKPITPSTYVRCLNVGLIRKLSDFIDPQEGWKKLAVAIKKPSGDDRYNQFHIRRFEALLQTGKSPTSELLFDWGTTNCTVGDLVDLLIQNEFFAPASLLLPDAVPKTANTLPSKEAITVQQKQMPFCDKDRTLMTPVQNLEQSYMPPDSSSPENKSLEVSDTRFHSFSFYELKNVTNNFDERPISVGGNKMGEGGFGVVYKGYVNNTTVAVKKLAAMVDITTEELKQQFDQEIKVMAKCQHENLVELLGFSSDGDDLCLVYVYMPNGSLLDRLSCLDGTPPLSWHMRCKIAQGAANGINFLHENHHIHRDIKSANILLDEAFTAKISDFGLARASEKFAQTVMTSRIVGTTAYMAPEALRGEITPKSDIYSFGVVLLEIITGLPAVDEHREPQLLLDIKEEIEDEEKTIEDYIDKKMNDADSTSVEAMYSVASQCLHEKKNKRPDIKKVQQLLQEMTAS

On to `CC(C)Nc1cc(-n2ncc3cc(C#N)c(N)nc32)ncc1-c1cn(CC(C)(C)O)nn1` [Example 97, 6-amino-1-(5-(1-(2-hydroxy-2-methylpropyl)-1H-1,2,3-triazol-4-yl)-4-(isopropylamino)pyridin-2-yl)-1H-pyrazolo[3,4-b]pyridine-5-carbonitrile], for which the IC50 on IRAK4 came out at 0.008 µM. Moreover, the apparent permeability (Papp) at 2 h, 3 µM in data set [1] is under 15 nm/s. The compound further gave an EC50 in data set [2] of 1.44 µM.
Consider `Cc1n[nH]c(C)c1CCn1cc(-c2cnc(-n3ncc4cc(C#N)cnc43)cc2NC(C)C)nn1` [Example 102, 1-(5-(1-(2-(3,5-dimethyl-1H-pyrazol-4-yl)ethyl)-1H-1,2,3-triazol-4-yl)-4-(isopropylamino)pyridin-2-yl)-1H-pyrazolo[3,4-b]pyridine-5-carbonitrile], for which the concentration for half-maximal inhibition (IC50) at IRAK4 came to 0.004 µM. In data set [1], this compound registered a Papp at 2 h, 3 µM of under 15 nm/s. Also, in data set [2], a half-maximal effect (EC50) was put at 1.11 µM.
For the compound `CC(C)Nc1cc(-n2ncc3cc(C#N)cnc32)ncc1-c1cn(CC2CCC2)nn1` [Example 117, 1-(5-(1-(cyclobutylmethyl)-1H-1,2,3-triazol-4-yl)-4-(isopropylamino)pyridin-2-yl)-1H-pyrazolo[3,4-b]pyridine-5-carbonitrile], the IC50 on IRAK4 came to 0.004 µM. Moreover, the apparent permeability (Papp) at 2 h, 3 µM in data set [1] came out at 101 nm/s. In data set [2], this compound had an EC50 of 1.19 µM.
For the compound `CC(C)Nc1cc(-n2ncc3cc(C#N)cnc32)ncc1-c1cn(CCc2cccnc2)nn1` [Example 119, 1-(4-(isopropylamino)-5-(1-(2-(pyridin-3-yl)ethyl)-1H-1,2,3-triazol-4-yl)pyridin-2-yl)-1H-pyrazolo[3,4-b]pyridine-5-carbonitrile], the IC50 on IRAK4 is 0.002 µM. Further, the apparent permeability coefficient (Papp) at 2 h, 3 µM in data set [1] was 50 nm/s. In addition, a half-maximal response in data set [2] (EC50) required 0.43 µM.
For `CC(C)Nc1cc(-n2ncc3cc(C#N)cnc32)ncc1-c1cn(CCc2ccncc2)nn1` [Example 120, 1-(4-(isopropylamino)-5-(1-(2-(pyridin-4-yl)ethyl)-1H-1,2,3-triazol-4-yl)pyridin-2-yl)-1H-pyrazolo[3,4-b]pyridine-5-carbonitrile], in that order: 0.001 µM, 74 nm/s and 0.2 µM.
For `CCOCCn1cc(-c2cnc(-n3ncc4cc(C#N)cnc43)cc2NC(C)C)nn1` [Example 122, 1-(5-(1-(2-ethoxyethyl)-1H-1,2,3-triazol-4-yl)-4-(isopropylamino)pyridin-2-yl)-1H-pyrazolo[3,4-b]pyridine-5-carbonitrile], in that order: 0.006 µM, 322 nm/s and 0.59 µM.
The corresponding values for `CC(C)Nc1cc(-n2ncc3cc(C#N)cnc32)ncc1-c1cn(CC2CCO2)nn1` (stereo not drawn) [Example 123, 1-(4-(isopropylamino)-5-(1-(oxetan-2-ylmethyl)-1H-1,2,3-triazol-4-yl)pyridin-2-yl)-1H-pyrazolo[3,4-b]pyridine-5-carbonitrile] are 0.005 µM, 244 nm/s and 0.24 µM.
`CC(C)Nc1cc(-n2ncc3cc(C#N)cnc32)ncc1-c1cn(CCCCO)nn1` [Example 124, 1-(5-(1-(4-hydroxybutyl)-1H-1,2,3-triazol-4-yl)-4-(isopropylamino)pyridin-2-yl)-1H-pyrazolo[3,4-b]pyridine-5-carbonitrile]: the 50% inhibitory concentration (IC50) at IRAK4 amounted to 0.002 µM. Also, the Papp at 2 h, 3 µM in data set [1] was 29 nm/s. In data set [2], this compound registered an EC50 of 0.29 µM.
The corresponding values for `CC(C)Nc1cc(-n2ncc3cc(C#N)cnc32)ncc1-c1cn(CCC(C)(C)O)nn1` [Example 128, 1-(5-(1-(3-hydroxy-3-methylbutyl)-1H-1,2,3-triazol-4-yl)-4-(isopropylamino)pyridin-2-yl)-1H-pyrazolo[3,4-b]pyridine-5-carbonitrile] are 0.001 µM, 50 nm/s and 0.34 µM.
The corresponding values for `[2H]C([2H])([2H])C(=O)N1CC(n2cc(-c3cnc(-n4ncc5cc(C#N)cnc54)cc3NC(C)C)nn2)C1` [Example 140, 1-(5-(1-(1-trideuteroacetylazetidin-3-yl)-1H-1,2,3-triazol-4-yl)-4-(isopropylamino)pyridin-2-yl)-1H-pyrazolo[3,4-b]pyridine-5-carbonitrile] are 0.003 µM, under 15 nm/s and 0.36 µM.
The corresponding values for `CC(C)Nc1cc(-n2ncc3cc(C#N)cnc32)ncc1-c1cn(C2CN(C(C)C)C2)nn1` [Example 150, 1-(4-(isopropylamino)-5-(1-(1-isopropylazetidin-3-yl)-1H-1,2,3-triazol-4-yl)pyridin-2-yl)-1H-pyrazolo[3,4-b]pyridine-5-carbonitrile] are 0.002 µM, 91 nm/s and 0.45 µM.
For `CC(C)Nc1cc(-n2cnc3cc(C#N)cnc32)ncc1-c1cn(C2CN(C)C2)nn1` [Example 152, 3-(4-(isopropylamino)-5-(1-(1-methylazetidin-3-yl)-1H-1,2,3-triazol-4-yl)pyridin-2-yl)-3H-imidazo[4,5-b]pyridine-6-carbonitrile], the half-maximal inhibitory concentration (IC50) at IRAK4 worked out at 0.004 µM. For the same compound, the Papp at 2 h, 3 µM in data set [1] stood at 158 nm/s. The compound also registered a 50% effective concentration (EC50) in data set [2] of 0.75 µM.
For `CC(=O)N1CC(n2cc(-c3cnc(-n4ncc5cc(C#N)cnc54)cc3NC(C)C)nn2)C1` [Example 154, 1-(5-(1-(1-acetylazetidin-3-yl)-1H-1,2,3-triazol-4-yl)-4-(isopropylamino)pyridin-2-yl)-1H-pyrazolo[3,4-b]pyridine-5-carbonitrile], in that order: 0.004 µM, under 15 nm/s and 0.15 µM.
For `CC(=O)N1CCC(n2cc(-c3cnc(-n4ncc5cc(C#N)cnc54)cc3NC(C)C)nn2)C1` (stereo not drawn) [Example 157, 1-(5-(1-(1-acetylpyrrolidin-3-yl)-1H-1,2,3-triazol-4-yl)-4-(isopropylamino)pyridin-2-yl)-1H-pyrazolo[3,4-b]pyridine-5-carbonitrile], in that order: 0.006 µM, under 15 nm/s and 0.28 µM.
In the case of `CC(=O)N1CCC(n2cc(-c3cnc(-n4ncc5cc(C#N)cnc54)cc3NC(C)C)nn2)CC1` [Example 159, 1-(5-(1-(1-acetylpiperidin-4-yl)-1H-1,2,3-triazol-4-yl)-4-(isopropylamino)pyridin-2-yl)-1H-pyrazolo[3,4-b]pyridine-5-carbonitrile], the 50% inhibitory concentration (IC50) at IRAK4 was 0.004 µM. In addition, the Papp at 2 h, 3 µM in data set [1] was under 15 nm/s. The compound further gave an EC50 in data set [2] of 0.13 µM.
The corresponding values for `CC(=O)N1CCCC(n2cc(-c3cnc(-n4ncc5cc(C#N)cnc54)cc3NC(C)C)nn2)C1` (stereo not drawn) [Example 160, 1-(5-(1-(1-acetylpiperidin-3-yl)-1H-1,2,3-triazol-4-yl)-4-(isopropylamino)pyridin-2-yl)-1H-pyrazolo[3,4-b]pyridine-5-carbonitrile] are 0.001 µM, 18 nm/s and 0.29 µM.
For `CC(=O)N1CC(n2cc(-c3cnc(-n4ccc5cc(C#N)cnc54)cc3NC(C)C)nn2)C1` [Example 162, 1-(5-(1-(1-acetylazetidin-3-yl)-1H-1,2,3-triazol-4-yl)-4-(isopropylamino)pyridin-2-yl)-1H-pyrrolo[2,3-b]pyridine-5-carbonitrile, TFA], at IRAK4, the half-maximal inhibitory concentration (IC50) was found to be 0.004 µM. In data set [1], this compound displayed an apparent permeability (Papp) at 2 h, 3 µM of 171 nm/s. This compound gave an EC50 in data set [2] of 0.44 µM.
For `CC(C)Nc1cc(-n2ccc3cc(C#N)cnc32)ncc1-c1cn(CCN2CCOCC2)nn1` [Example 163, 1-(4-(isopropylamino)-5-(1-(2-morpholinoethyl)-1H-1,2,3-triazol-4-yl)pyridin-2-yl)-1H-pyrrolo[2,3-b]pyridine-5-carbonitrile, 2TFA], in that order: 0.002 µM, 195 nm/s and 0.6 µM.
The corresponding values for `CC(=O)Cn1cc(-c2cnc(-n3ncc4cc(C#N)cnc43)cc2NC(C)C)nn1` [Example 170, 1-(4-(isopropylamino)-5-(1-(2-oxopropyl)-1H-1,2,3-triazol-4-yl)pyridin-2-yl)-1H-pyrazolo[3,4-b]pyridine-5-carbonitrile] are 0.002 µM, 45 nm/s and 0.43 µM.
For the compound `CC(=O)N1CC[C@H](n2cc(-c3cnc(-n4ncc5cc(C#N)cnc54)cc3NC(C)C)nn2)[C@H](O)C1` [Example 178, 1-(5-(1-((3R,4S)-1-acetyl-3-hydroxypiperidin-4-yl)-1H-1,2,3-triazol-4-yl)-4-(isopropylamino)pyridin-2-yl)-1H-pyrazolo[3,4-b]pyridine-5-carbonitrile], the IC50 on IRAK4 worked out at 0.006 µM. For the same compound, the Papp at 2 h, 3 µM in data set [1] was under 15 nm/s. In data set [2], this compound came in with a concentration for a half-maximal effect (EC50) of 0.53 µM.
In the case of `CC(C)Nc1cc(-n2ncc3cc(C#N)cnc32)ncc1-c1cn([C@H]2CCN(C(=O)C(C)(C)C)C[C@H]2O)nn1` [Example 179, 1-(5-(1-((3R,4S)-3-hydroxy-1-pivaloylpiperidin-4-yl)-1H-1,2,3-triazol-4-yl)-4-(isopropylamino)pyridin-2-yl)-1H-pyrazolo[3,4-b]pyridine-5-carbonitrile], the IC50 on IRAK4 was determined as 0.007 µM. This compound displayed a Papp at 2 h, 3 µM in data set [1] of 18 nm/s. In data set [2], this compound gave a 50% effective concentration (EC50) of 0.68 µM.
For `CCOC(=O)N1CC[C@H](n2cc(-c3cnc(-n4ncc5cc(C#N)cnc54)cc3NC(C)C)nn2)[C@H](O)C1` [Example 180, (3R,4S)-ethyl 4-(4-(6-(5-cyano-1H-pyrazolo[3,4-b]pyridin-1-yl)-4-(isopropylamino)pyridin-3-yl)-1H-1,2,3-triazol-1-yl)-3-hydroxypiperidine-1-carboxylate], in that order: 0.011 µM, 32 nm/s and 2.14 µM.

One may read the IC50 as the concentration at which inhibition is half-maximal. A word on the Papp: it is the rate of passage across a membrane or cell layer, normalised by area and donor concentration. As a reminder, the EC50 is the concentration that produces a half-maximal response. A high value points to a less potent agent.
